Measured values: the supplement of paper PMC8149375

Experiments:
Conditions in all cases: treatment: drug + dasatinib (fixed dose, not stated); 5 days
CAKI-1 [1] = assay: AUC of dose-response viability curve, drug + dasatinib, normalised to DMSO (arbitrary (AUC of normalised viability)); higher = less growth inhibition
Experimental: (§1)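 Primary HTS combination arm: 8 RCC cell lines treated with 8 doses (up to 10 uM) of each library drug plus a fixed dose of dasatinib (dose not stated) for 5 days; viability read by CellTiter-Glo and normalised to DMSO. GI50 was fitted with XLfit, AUC is the area under the dose-response curve, and minimum viability is the lowest fraction of DMSO viability across doses.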

ACHN [2] = assay: as above
Experimental: as §1

SN12C [3] = assay: as above
Experimental: as §1

786-O [4] = assay: as above
Experimental: as §1

UO-31 [5] = assay: as above
Experimental: as §1

A498 [6] = assay: as above
Experimental: as §1

769-P [7] = assay: as above
Experimental: as §1

TK-10 [8] = assay: as above
Experimental: as §1

CAKI-1 [9] = assay: minimum viability across doses, drug + dasatinib, relative to DMSO (fraction); higher = less growth inhibition
Experimental: as §1

ACHN [10] = assay: as above
Experimental: as §1

SN12C [11] = assay: as above
Experimental: as §1

786-O [12] = assay: as above
Experimental: as §1

UO-31 [13] = assay: as above
Experimental: as §1

A498 [14] = assay: as above
Experimental: as §1

769-P [15] = assay: as above
Experimental: as §1

TK-10 [16] = assay: as above
Experimental: as §1

CAKI-1 [17] = assay: GI50 of drug in presence of dasatinib; higher = less potent
Experimental: as §1

ACHN [18] = assay: as above
Experimental: as §1

SN12C [19] = assay: as above
Experimental: as §1

786-O [20] = assay: as above
Experimental: as §1

UO-31 [21] = assay: as above
Experimental: as §1

A498 [22] = assay: as above
Experimental: as §1

769-P [23] = assay: as above
Experimental: as §1

TK-10 [24] = assay: as above
Experimental: as §1

GI50 of drug (ACHN [18]) | GI50 of drug (786-O [20]) | SMILES | AUC of dose-response viability curve (CAKI-1 [1]) | AUC of dose-response viability curve (ACHN [2]) | AUC of dose-response viability curve (SN12C [3]) | AUC of dose-response viability curve (786-O [4]) | AUC of dose-response viability curve (UO-31 [5]) | AUC of dose-response viability curve (A498 [6]) | AUC of dose-response viability curve (769-P [7]) | AUC of dose-response viability curve (TK-10 [8]) | minimum viability across doses (CAKI-1 [9]) | minimum viability across doses (ACHN [10]) | minimum viability across doses (SN12C [11]) | minimum viability across doses (786-O [12]) | minimum viability across doses (UO-31 [13]) | minimum viability across doses (A498 [14]) | minimum viability across doses (769-P [15]) | minimum viability across doses (TK-10 [16]) | GI50 of drug (CAKI-1 [17]) | GI50 of drug (SN12C [19]) | GI50 of drug (UO-31 [21]) | GI50 of drug (A498 [22]) | GI50 of drug (769-P [23]) | GI50 of drug (TK-10 [24])
> 10000 nM | > 10 µM | CS(=O)(=O)O.Cc1ccc(NC(=O)c2ccc(CN3CCN(C)CC3)cc2)cc1Nc1nccc(-c2cccnc2)n1 [Imatinib Mesylate] + Cc1nc(Nc2ncc(C(=O)Nc3c(C)cccc3Cl)s2)cc(N2CCN(CCO)CC2)n1 [dasatinib] | 2.36 | 2.48 | 2.49 | 2.69 | 3.49 | 3.53 | 2.34 | 2.85 | 0.603 | 0.595 | 0.688 | 0.584 | 0.683 | 0.945 | 0.562 | 0.666 | > 10000 nM | > 10 µM | > 10 µM | > 10 µM | > 10000 nM | > 10 µM
78.5 nM | 8.58 µM | O=C(c1ccc(/C=C/c2n[nH]c3ccccc23)cc1)N1CCNCC1 [KW 2449] + Cc1nc(Nc2ncc(C(=O)Nc3c(C)cccc3Cl)s2)cc(N2CCN(CCO)CC2)n1 [dasatinib] | 2.03 | 1.64 | 2.05 | 2.58 | 3.7 | 3.27 | 2.33 | 2.89 | 0.15 | 0.159 | 0.0456 | 0.425 | 0.0258 | 0.521 | 0.162 | 0.611 | 2540 nM | 1.24 µM | 3.52 µM | > 10 µM | 2780 nM | > 10 µM
43.3 nM | 0.0149 µM | O=C(Cc1ccc(-c2ccc(OCCN3CCOCC3)cc2)cn1)NCc1ccccc1 [KX2-391] + Cc1nc(Nc2ncc(C(=O)Nc3c(C)cccc3Cl)s2)cc(N2CCN(CCO)CC2)n1 [dasatinib] | 1.12 | 1.23 | 1.34 | 0.764 | 1.77 | 1.78 | 1.09 | 1.69 | 0.111 | 0.1 | 0.114 | 0.00445 | 0.00946 | 0.166 | 0.0616 | 0.243 | 29.5 nM | 0.0467 µM | 0.0926 µM | 0.0776 µM | 35.9 nM | 0.104 µM
1280 nM | 8.55 µM | COc1cc2nccc(Oc3ccc(NC(=O)Nc4ccc(F)cc4F)c(F)c3)c2cc1OC [Ki8751] + Cc1nc(Nc2ncc(C(=O)Nc3c(C)cccc3Cl)s2)cc(N2CCN(CCO)CC2)n1 [dasatinib] | 1.95 | 1.89 | 2.37 | 2.33 | 3.73 | 4.09 | 2.15 | 2.6 | 0.154 | 0.352 | 0.546 | 0.483 | 0.735 | 1.04 | 0.304 | 0.683 | 1410 nM | > 10 µM | > 10 µM | > 10 µM | 1090 nM | > 10 µM
176 nM | 6.69 µM | CS(=O)(=O)CCNCc1ccc(-c2ccc3ncnc(Nc4ccc(OCc5cccc(F)c5)c(Cl)c4)c3c2)o1.Cc1ccc(S(=O)(=O)O)cc1.Cc1ccc(S(=O)(=O)O)cc1 [Lapatinib Ditosylate (Tykerb)] + Cc1nc(Nc2ncc(C(=O)Nc3c(C)cccc3Cl)s2)cc(N2CCN(CCO)CC2)n1 [dasatinib] | 2.03 | 1.7 | 2.34 | 2.41 | 3.08 | 3.08 | 1.77 | 2.34 | 0.211 | 0.352 | 0.606 | 0.426 | 0.35 | 0.798 | 0.18 | 0.3 | 3850 nM | > 10 µM | 5.85 µM | > 10 µM | 401 nM | 3.34 µM
> 10000 nM | < 0.003 µM | Nc1cccc2c1CN(C1CCC(=O)NC1=O)C2=O (centres undefined) [Lenalidomide (Revlimid)] + Cc1nc(Nc2ncc(C(=O)Nc3c(C)cccc3Cl)s2)cc(N2CCN(CCO)CC2)n1 [dasatinib] | 2.41 | 2.05 | 2.55 | 2.61 | 4.59 | 3.71 | 2.51 | 2.56 | 0.656 | 0.503 | 0.706 | 0.488 | 1.19 | 0.989 | 0.497 | 0.666 | > 10000 nM | > 10 µM | > 10 µM | > 10 µM | > 10000 nM | > 10 µM
